pEC50: −log10 of the molar value. Like-named read-outs stand apart in the source and are kept apart here.

Usually pEC50 stands for the EC50 on a negative log10 scale, so that one unit is a factor of ten.

Common to all, as to format: binding
Assay [1] addresses synthetic Aβ(1–40) fibrils (Homo sapiens, UniProt P05067). Briefly: Displacement of 5 nM [3H]-1a.
The target in assay [2] is synthetic Aβ(1–42) fibrils (Homo sapiens, UniProt P05067). Briefly: Displacement of 5 nM [3H]-1a.
For the next assay, the system named is Aβ40 and Aβ42 fibrils. Kind of assay: Displacement of tritiated 1a from Aβ fibrils. As to conditions: benzothiazole ligands versus tritiated 1a on Aβ fibrils.
Where [3] appears, read: read-out: Aβ(1–40) EC50, displacement of 5 nM [3H]-1a from synthetic Aβ(1–40) fibrils.
Where [4] appears, read: read-out: Aβ(1–42) EC50, displacement of 5 nM [3H]-1a from synthetic Aβ(1–42) fibrils.

Chain of synthetic Aβ(1–42) fibrils (P05067 672-713): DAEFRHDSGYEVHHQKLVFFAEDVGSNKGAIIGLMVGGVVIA
Chain of synthetic Aβ(1–40) fibrils (P05067 672-711): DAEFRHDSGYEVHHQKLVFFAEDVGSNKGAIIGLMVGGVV

Turning to `COc1cc(/C=C/c2ccc(N)cc2)ccc1/C=C/c1ccc(N)cc1` [BMB, (E,E)-1-methoxy-2,5-bis(4’-aminostyryl)benzene], the pEC50 is less than 5.00 in assay [1] and 5.52 in assay [2].
In the case of `O=C(O)c1cc(/C=C/c2ccc(/C=C/c3ccc(O)c(C(=O)O)c3)c(Br)c2)ccc1O` [BSB], the values for the pEC50 in assay [1] and in assay [2] were 6.64 and 6.92, respectively.
`CNc1ccc(-c2nc3ccccc3s2)cc1` [BTA-1, 2-(4´-methylaminophenyl)benzothiazole]: the “displacing 1a” value with Aβ40 and Aβ42 fibrils was “ineffective”.
Regarding `O=C(O)c1cc(/N=N/c2ccc(-c3ccc(/N=N/c4ccc(O)c(C(=O)O)c4)cc3)cc2)ccc1O` [Chrysamine G], the negative-log EC50 (pEC50) in assay [1] was 5.05; in assay [2], 6.05.
Turning to `Nc1c(/N=N/c2ccc(-c3ccc(/N=N/c4cc(S(=O)(=O)O)c5ccccc5c4N)cc3)cc2)cc(S(=O)(=O)O)c2ccccc12` [Congo Red], the negative-log EC50 (pEC50) is 5.64 in assay [1] and 6.15 in assay [2].
The corresponding values for `Oc1ccc(/C=C/c2ccc(/C=C/c3ccc(O)cc3)c(Br)c2)cc1` [K114, (E,E)-1-bromo-2,5-bis(4’-hydroxystyryl)benzene] are less than 5.00 and 5.52.
`CNc1ccc(-c2nc3ccc(O)cc3s2)cc1` [PIB, Pittsburgh Compound B]: the “displacing 1a” value with Aβ40 and Aβ42 fibrils is recorded as “ineffective”.
Same read-out and setting: the result for `Cc1ccc2c(c1)sc(-c1ccc(N(C)C)cc1)[n+]2C.[Cl-]` [ThT, Thioflavine T] reads “ineffective”.
As for `CC(C)Cc1ccc(C(C)C(=O)O)cc1` (stereo not drawn) [ibuprofen], the pEC50 in assay [1] and in assay [2] was less than 5.00 in each case.
With `COc1ccc2cc([C@H](C)C(=O)O)ccc2c1` [naproxen], the pEC50 in assay [1] and in assay [2] was less than 5.00 throughout.
As to Thioflavin S [ThS], the negative-log EC50 (pEC50) in assay [1] (setting [3]) and in assay [2] (setting [4]) was less than 5.00 each time.
In the case of primulin, the negative logarithm of the EC50 (pEC50) in assay [1] (setting [3]) and in assay [2] (setting [4]) was less than 5.00 each time.

The values above are taken from article PMC4254541 (Bioorganic & medicinal chemistry letters, 2014).
